{
  "source": "patent US20080293698A1",
  "about": "“Methods and Compositions for Treating Arg” (priority 2005, published 2008)",
  "key": {"GHB receptor": {"test_system": "GHB receptor", "settings": "reported in United States patent application 20020132846; cited from earlier work"}, "human subjects": {"test_system": "human subjects", "assay": "4-HPA and 4-HPA lactone administered to human subjects (Example 53)", "settings": "for effects experienced by the subjects: at equivalent doses of GHB toxicity or sleep would have occurred"}, "[1]": {"assay": "Chemical stability of GHB as a function of pH (cyclization to GBL)", "type": "physicochemical"}, "patients": {"test_system": "patients", "settings": "therapeutic doses, GHB as lone agent; cited from earlier work"}, "patient with ARG": {"test_system": "patient with ARG", "assay": "Case reports: patients with ARG treated with GABAnergic agents prior to sleep", "type": "in vivo, human", "excerpt": "The patient was then switched to monotherapy using only NaGHB 4.5 grams prior to the intended sleep time and a second dose of 4.5 grams four hours after the first. […] The patient was switched back to treatment with multiple GABAnergic agents and again had dramatic reduction in fatigue. On a scale from 0 to 10 where 10 is the most tired, the patient rated the fatigue at 10 without treatment, 3 to 4 with treatment on multiple GABAnergic agents, and 10 on monotherapy with NaGHB.\nA patient with ARG was treated with the Class IV agent zolpidem 10 mg, The Class III agent alprazolam 2 mg, the Class V agent gabapentin 200 mg, and the Class II agent sodium salt of gamma-hydroxyl butyrate 5.25 grams prior to sleep. The patient was treated chronically on a nightly basis. Sometimes, according to the patient's judgement, 3.75 grams of the sodium salt of gamma-hydroxyl butyric acid was consumed upon awakening, which usually was about six hours after the first dose of medications.\nIn another example a patient with ARG was given the Class I agent 660 ml red wine 13.5% alcohol by volume, the Class III agent alprazolam 3 mg, the Class V agent gabapentin 300 mg, and the Class IV agent 10 mg zolpidem. Five hours later, the patient was awoken and given the Class II agent the sodium salt of gamma-hydroxyl butyric acid 3 grams.\nIn another example a patient with ARG was treated with the Class I agent 660 ml red wine 13.5% alcohol by volume, the Class I agent liqeur 30% alcohol by volume 200 ml, the Class III agent alprazolam 2 mg, the […] 200 mg, and the Class II agent the sodium salt of gamma-hydroxyl butyric acid 4 grams prior to sleep.\nA patient with acquired resistance to GABAnergic agents was treated with the Class III agent alprazolam 2 mg, the Class IV agent zolpidem 10 mg, the Class V agent gabapentin 200 mg, and the Class II agent NaGHB 7 grams. […] 7 grams NaGHB as a single dose is a large dose, which may be too toxic for some patients.\nA patient with acquired resistance to GABAnergic agents was treated with the Class I agent red wine 660 ml 13.5% alcohol by volume, then the Class III agent alprazolam 3 mg, the Class V agent gabapentin 300 mg, the Class IV agent zolpidem 10 mg, and the Class II agent NaGHB 9 grams. 4 hours after sleep onset the patient awoke in a neighboring room in a pool of vomitus of partially digested wine. The patient was lucid and had mild nausea. The patient went back to sleep in bed for an additional 2 hours and was able to work the next day. […] The combination of red wine and such large doses of GHB are not typically recommended by the inventor and can be fatal.\nA patient with ARG was given the Class III agent alprazolam 7 mg, the Class IV agent zolpidem 10 mg, and the Class V agent gabapentin 300 mg prior to sleep. […] The dose of alprazolam may be reduced by adding a Class I or Class II agent to the regimen.\nA patient with ARG who had minimal obstructive sleep apnea was chronically treated with the Class I agent red wine about 200 to 1500 ml 13.5% alcohol by volume, the Class IV agent zolpidem 10 mg, the Class III agent alprazolam 3 mg, and the Class V agent gabapentin 300 mg prior to sleep. Sufficient wine was consumed to produce moderate to strong sleepiness and then the other GABAminergic medications were consumed. When the volume of wine on a particular night required to induce strong sleepiness was inconvenient, the patient quickly drank liqeur 30% alcohol by volume, typically about 160 ml, in order to induce strong sleepiness.\nA patient with ARG who had minimal obstructive sleep apnea was chronically treated with the Class I agent red wine about 660 to 1500 ml about 13% alcohol by volume, the Class IV agent zolpidem 10 mg, the Class III agent alprazolam 3 mg, and the Class V agent gabapentin 300 mg prior to sleep. Sufficient wine was consumed to produce moderate to strong sleepiness and then the other GABAnergic medications were consumed. […]"}, "[2]": {"test_system": "patient with a sleeping disorder", "assay": "Case report: patient with a sleeping disorder treated with alprazolam, zolpidem, gabapentin and NaGHB (Example 86)", "type": "in vivo, human", "experimental": "Overnight polysomnography had shown minimal obstructive sleep apnea with 2 apneas per hour of sleep. The patient was placed on a regimen of the Class III agent alprazolam, the Class IV agent zolpidem, the Class V agent gabapentin, and the Class II agent the sodium salt of gamma-hydroxyl butyric acid (GHB), which were administered prior to sleep for the treatment of sleeping disorders. The initial dose of GHB was prescribed as 2.25 grams prior to sleep and repeat dose of 2.25 grams to be taken 2.5 to 4 hours after sleep onset.\nAt a dose of 3 grams prior to sleep and a second dose upon awakening, the patient was eating only one to two small meals per day. Their maximum previous weight had been 169 lbs and their baseline weight was 159 pounds. They lost weight down to 145 lbs and looked gaunt. They believed that the GHB had suppressed their appetite and consulted an endocrinologist, who did a thorough medical evaluation including an am cortisol, a comprehensive chemistry profile, a CBC, and thyroid studies, all of which were normal. The patient discontinued the GHB and their appetite returned within two days. Over roughly five months, they then gained weight up to 195 lbs and their weight remained stable."}, "pH of NaGHB solution": {"assay": "pH of NaGHB solution", "type": "physicochemical", "settings": "240 mg per ml", "experimental": "The pH of NaGHB at 240 mg per ml is approximately 9.5, at which neither pathogenic nor non-pathogenic organisms grow. As the concentration of NaGHB is increased, the pH is yet higher. […] Concentrated NaGHB is highly toxic regardless of pH and must be diluted prior to consumption. The pH of NaGHB at 500 mg/ml drops rapidly into the physiologic range upon dilution. Highly concentrated GBL and 1,4-butanediol are known to be resistant to microbial growth, require no special storage procedures, and likewise must be diluted prior to consumption, typically to 5% to 30% solutions but more preferably 5% to 20%."}, "[3]": {"test_system": "patients with fibromyalgia", "settings": "3 grams NaGHB at bedtime and a second dose about 4 h later; cited from earlier work"}, "[4]": {"test_system": "patients with fibromyalgia or chronic fatigue syndrome", "settings": "cited from earlier work"}},
  "note": "“And” between values parts separate entries of the source, which are not always exact repeats. Equal values may be shown once. Where a name gives a salt, the structure may show the parent alone.",
  "data": [
    {"compound": "CC1CCC(=O)O1", "note": "(stereo not drawn) [4-HPA lactone, 4-hydroxyl pentanoic acid lactone]", "values": [
      {"measurement": "binding to the GHB receptor", "setting": "GHB receptor", "value": "bind the GHB receptor"},
      {"measurement": "toxicity compared with GHB", "setting": "human subjects", "value": "less toxic than GHB"},
      {"measurement": "effects experienced by the subjects", "setting": "human subjects", "value": "relaxing effects"}
    ]},
    {"compound": "CC(O)CCC(=O)O", "note": "(stereo not drawn) [Example 4-HPA, 4-hydroxyl pentanoic acid]", "values": [
      {"measurement": "toxicity compared with GHB", "setting": "human subjects", "value": "less toxic than GHB"},
      {"measurement": "effects experienced by the subjects", "setting": "human subjects", "value": "relaxing effects"}
    ]},
    {"compound": "O=C(O)CCCO", "note": "[GHB, gamma hydroxyl butyric acid]", "values": [
      {"measurement": "pH at which gamma-butyryl lactone (cyclized form) begins to form", "setting": "[1]", "value": "≤ 6"},
      {"measurement": "duration of the sleep inducing effect", "setting": "patients", "value": "2 to 3 h and 2 to 4 h"},
      {"measurement": "sleep induction by the second dose of GHB", "setting": "patient with ARG; 3.75 grams upon awakening, about six hours after the first dose of medications", "value": "usually did not induce sleep"},
      {"measurement": "sleep induction by the second dose of GHB", "setting": "[2]; 3.75 grams upon awakening", "value": "usually did not induce sleep"},
      {"measurement": "body weight on treatment", "setting": "[2]; baseline weight 159 pounds, 3 grams prior to sleep and a second dose upon awakening", "value": 145, "unit": "lbs"},
      {"measurement": "medical evaluation (am cortisol, comprehensive chemistry profile, CBC, thyroid studies)", "setting": "[2]; during weight loss on GHB", "value": "normal"},
      {"measurement": "time to return of appetite after discontinuing GHB", "setting": "[2]; human, in vivo", "value": "two"},
      {"measurement": "appetite", "setting": "[2]; within one week of beginning to take the GHB", "value": "marked decrease in appetite"}
    ]},
    {"compound": "O=C(O)CCCO", "note": "[NaGHB, sodium salt of gamma-hydroxyl butyric acid]", "values": [
      {"measurement": "pH of the solution", "setting": "pH of NaGHB solution", "value": "approximately 9.5"},
      {"measurement": "improvement on monotherapy", "setting": "patient with ARG; NaGHB 4.5 grams twice per sleep period, no other GABAnergic agent", "value": "no improvement"},
      {"measurement": "sleep induction by the first dose", "setting": "patient with ARG; monotherapy, NaGHB 4.5 grams prior to the intended sleep time", "value": "did not induce sleep at all"},
      {"measurement": "duration of sleep induced by the second dose", "setting": "patient with ARG; monotherapy, second dose of 4.5 grams four hours after the first", "value": "two"},
      {"measurement": "side effects / toxicity", "setting": "patient with ARG; patient with ARG on the regimen", "value": "state of near stupor"},
      {"measurement": "fatigue rated by the patient", "setting": "patient with ARG; scale from 0 to 10 where 10 is the most tired, 10 without treatment", "value": 10},
      {"measurement": "patients in the treatment arm who withdrew due to side effects", "setting": "[3]", "value": "Six of 24"},
      {"measurement": "sleep obtained per dose", "setting": "[4]; 2.25 grams NaGHB at bedtime and again four hours later, in some instances", "value": "2 to 3", "unit": "h"},
      {"measurement": "effect in patients diagnosed with chronic fatigue syndrome", "setting": "[4]; pilot open label trial, quoted from document C", "value": "no effect"}
    ]},
    {"compound": "cyanocobalamin", "values": [
      {"measurement": "fatigue on the increased dose of cyanocobalamin", "setting": "patient with ARG; 2000 mcg IM about every three days, in addition to multiple GABAnergic agents", "value": "mild decrease in fatigue"},
      {"measurement": "mouth sores under vitamin treatment", "setting": "patient with ARG; cyanocobalamin 500 mcg IM once, 'rotate' 5 mg orally, multivitamin containing thiamine 1.5 mg, patient on Example 90a regimen", "value": "resolved"}
    ]}
  ]
}
